Drawing on ChEMBL document CHEMBL2074170, “Influence of different chemicals on MDR-1 P-glycoprotein expression and activity in the HK-2 proximal tubular cell line” (Toxicol Appl Pharmacol, 2002), this text covers Activity for nine molecules.

The target in data set [1] is T1, ATP-dependent translocase ABCB1 (Homo sapiens, UniProt P08183). Description: TP_TRANSPORTER: Western blot, HK-2 cells. The format is functional, cell-based. In general terms: Immunoblotting shows a protein as a band on a membrane.
The target in data set [2] is T1, ATP-dependent translocase ABCB1. As to the kind of experiment: TP_TRANSPORTER: RT-PCR in HK-2 cell. The format is functional, cell-based.

T1 sequence (P08183 whole entry): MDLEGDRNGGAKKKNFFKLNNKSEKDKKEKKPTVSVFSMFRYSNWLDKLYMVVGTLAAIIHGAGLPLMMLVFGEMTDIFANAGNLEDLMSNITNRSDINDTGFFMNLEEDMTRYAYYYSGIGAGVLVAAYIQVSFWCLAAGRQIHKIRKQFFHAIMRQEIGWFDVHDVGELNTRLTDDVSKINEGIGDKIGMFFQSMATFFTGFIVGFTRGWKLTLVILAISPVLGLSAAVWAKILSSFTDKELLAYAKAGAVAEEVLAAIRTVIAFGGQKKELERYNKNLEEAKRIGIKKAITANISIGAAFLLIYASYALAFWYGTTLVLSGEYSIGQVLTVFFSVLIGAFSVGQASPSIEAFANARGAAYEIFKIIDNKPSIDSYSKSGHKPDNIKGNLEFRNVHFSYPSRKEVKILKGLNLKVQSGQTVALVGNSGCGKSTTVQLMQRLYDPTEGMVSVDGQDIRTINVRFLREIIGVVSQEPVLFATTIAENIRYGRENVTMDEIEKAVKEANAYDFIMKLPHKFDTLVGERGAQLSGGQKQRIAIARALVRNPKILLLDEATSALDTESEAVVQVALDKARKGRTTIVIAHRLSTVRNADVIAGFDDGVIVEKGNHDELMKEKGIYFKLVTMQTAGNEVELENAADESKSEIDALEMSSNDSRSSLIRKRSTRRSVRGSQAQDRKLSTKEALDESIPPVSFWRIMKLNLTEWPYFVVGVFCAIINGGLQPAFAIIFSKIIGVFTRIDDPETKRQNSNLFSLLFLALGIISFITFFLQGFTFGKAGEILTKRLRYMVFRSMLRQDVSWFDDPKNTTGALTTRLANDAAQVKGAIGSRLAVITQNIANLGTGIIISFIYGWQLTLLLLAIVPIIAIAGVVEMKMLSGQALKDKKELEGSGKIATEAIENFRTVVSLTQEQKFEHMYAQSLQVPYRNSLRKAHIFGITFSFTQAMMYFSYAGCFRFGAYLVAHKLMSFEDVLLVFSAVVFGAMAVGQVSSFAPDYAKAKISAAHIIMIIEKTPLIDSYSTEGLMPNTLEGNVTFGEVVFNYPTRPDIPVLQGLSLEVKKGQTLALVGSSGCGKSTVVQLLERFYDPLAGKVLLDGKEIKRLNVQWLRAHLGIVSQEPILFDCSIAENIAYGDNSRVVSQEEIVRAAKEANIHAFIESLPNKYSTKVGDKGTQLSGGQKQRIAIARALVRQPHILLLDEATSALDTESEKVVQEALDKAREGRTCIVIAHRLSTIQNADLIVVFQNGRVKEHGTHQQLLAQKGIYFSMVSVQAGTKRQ

Regarding `C[C@@H]1C[C@H]2[C@@H]3CCC4=CC(=O)C=C[C@]4(C)[C@@]3(F)[C@@H](O)C[C@]2(C)[C@@]1(O)C(=O)CO` [DEXAMETHASONE], the Activity result in data set [1] and in data set [2] was “inducer [+]” in each case.

With `COc1cc(Cc2cnc(N)nc2N)cc(OC)c1OC` [TRIMETHOPRIM], the Activity result in data set [1] and in data set [2] was “is not an inducer [-]” throughout.

`Cc1ccc2cc3c(ccc4ccccc43)c3c2c1CC3` [3-METHYLCHOLANTHRENE]: in data set [1], the Activity result is “inducer [Decrease]”. Turning to `COc1ccc(CCN(C)CCCC(C#N)(c2ccc(OC)c(OC)c2)C(C)C)cc1OC` (stereo unspecified), the Activity result in data set [1] and in data set [2] was “is not an inducer [-]” in each case. In the case of `C[C@]12CCC(=O)C=C1CC[C@@H]1[C@@H]2[C@@H](O)C[C@]2(C=O)[C@@H](C(=O)CO)CC[C@@H]12` [ALDOSTERONE], in data set [1], the Activity entry is “inducer [+]”. Turning to `CN/C(=N/CCSCc1nc[nH]c1C)NC#N` [CIMETIDINE], the Activity entry in data set [1] and in data set [2] was “is not an inducer [-]” throughout.

In the case of `CCCCCCCCCCCCCCCCOC[C@H](COP(=O)([O-])OCC[N+](C)(C)C)OC(C)=O` [PLATELET ACTIVATING FACTOR], the Activity entry in data set [1] and in data set [2] was “inducer [+]” in each case. Turning to `CC(=O)[C@H]1CC[C@H]2[C@@H]3CCC4=CC(=O)CC[C@]4(C)[C@H]3CC[C@]12C` [PROGESTERONE], the Activity result in data set [1] and in data set [2] was “is not an inducer [-]” throughout. `CC(=O)Nc1ccc2c(c1)Cc1ccccc1-2` [2-ACETYLAMINOFLUORENE]: the Activity result in data set [1] and in data set [2] was “inducer [Decrease]” each time.
